Like-named read-outs stand apart in the source and are kept apart here. Marks after values point to notes of the source that are not given here.

These results are taken from PMC7687371, “Quantitative in Vitro to in Vivo Extrapolation (QIVIVE) for Predicting Reduced Anogenital Distance Produced by Anti-Androgenic Pesticides in a Rodent Model for Male Reproductive Disorders” (Environmental Health Perspectives, 2020).

In data set [1] the test system is Wistar rats. The following applies: male, rat, in vivo, 40 mg/kg/day. The method, then:
In total, four in vivo exposure studies were conducted with pesticide exposures to pregnant rats during gestation and lactation to the selected compound (Table 2). […] For one selected dose of each compound, the internal body concentrations in dams and fetuses were determined by cesarean section at GD21. Due to the study outcomes from the third study, we conducted a fourth follow-up study on dimethomorph (Study 4).
Pup weights and AGD were measured after birth at PD1 using a stereomicroscope with a micrometer eyepiece and were determined as the distance between the genital papilla and the anus. To discriminate between an anti-androgenic effect and stunted growth, the AGD index (AGDI) was calculated by dividing AGD by the cube root of the BW (as described by [Hass et al. 2007]). The estimation of AGDI effect doses by regression modeling required a standardized AGDI scale. Therefore, we normalized the AGDI values in relation to the dynamic range spanned by the mean AGDI of the male and the female controls as (38) normalized AGDI=mean(AGDI of male controls)−AGDI(exposed animal)/mean(AGDI of male controls)−mean(AGDI of female controls).

Data set [2] concerns Wistar rats. The following applies: rat, in vivo; cited from earlier work.
The target of data set [3] is T1, androgen receptor (AR) (Homo sapiens, UniProt P10275).
T1 construct: host or cells: AR-EcoScreen cells
T1 sequence (P10275 1-920): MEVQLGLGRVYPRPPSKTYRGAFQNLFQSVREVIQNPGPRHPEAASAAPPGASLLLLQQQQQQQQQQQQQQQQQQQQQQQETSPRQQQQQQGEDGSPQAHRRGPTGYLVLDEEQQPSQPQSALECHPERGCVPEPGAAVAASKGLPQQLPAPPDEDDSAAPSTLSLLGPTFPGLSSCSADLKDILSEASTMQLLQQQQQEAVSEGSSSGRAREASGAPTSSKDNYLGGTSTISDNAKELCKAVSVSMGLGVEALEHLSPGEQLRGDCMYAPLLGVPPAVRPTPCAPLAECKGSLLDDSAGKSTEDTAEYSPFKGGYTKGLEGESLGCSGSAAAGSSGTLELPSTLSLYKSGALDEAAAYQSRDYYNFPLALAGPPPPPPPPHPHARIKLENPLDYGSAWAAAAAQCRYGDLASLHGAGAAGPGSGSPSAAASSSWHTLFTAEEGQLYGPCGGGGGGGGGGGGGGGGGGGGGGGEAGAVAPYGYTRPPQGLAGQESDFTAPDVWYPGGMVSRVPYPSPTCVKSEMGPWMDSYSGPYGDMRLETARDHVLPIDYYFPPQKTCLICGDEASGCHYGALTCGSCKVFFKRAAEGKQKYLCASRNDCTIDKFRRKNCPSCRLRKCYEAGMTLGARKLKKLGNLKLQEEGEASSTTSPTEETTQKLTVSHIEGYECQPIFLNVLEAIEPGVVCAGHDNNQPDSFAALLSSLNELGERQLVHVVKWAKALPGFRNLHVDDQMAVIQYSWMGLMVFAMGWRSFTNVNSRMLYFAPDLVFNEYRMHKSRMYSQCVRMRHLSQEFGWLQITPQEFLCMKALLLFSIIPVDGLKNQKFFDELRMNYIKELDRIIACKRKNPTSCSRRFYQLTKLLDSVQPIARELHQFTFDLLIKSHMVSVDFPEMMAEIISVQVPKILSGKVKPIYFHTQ
Kind of data set: AR-EcoScreen androgen receptor transcriptional activation assay (AR antagonism). It is filed as cell-based. The method, then: Experiments were run with three technical replicates and repeated three times. The mean value of technical replicates represents one biological replicate. AR-EcoScreen™ cells (JCRB1328; Japanese Collection of Research Bioresources) were grown in CellBIND® surface cell culture flasks (Corning Inc.) in growth medium consisting of Gibco® Dulbecco’s Modified Eagle’s Medium/F-12 (DMEM/F-12) Nutrient Mixture with L-glutamine and 4-(2-hydroxyethyl)-1-piperazineethanesulfonic acid (HEPES) and without phenol red supplemented with 5% fetal bovine serum (FBS), 1% penicillin-streptomycin, 200μg/mL Zeocin™ selection reagent, and 100μg/mL Hygromycin B (all reagents from Invitrogen, Life Technologies). The cells were incubated at 37°C in a humidified atmosphere of 5% carbon dioxide ( CO2 ) and 95% air. On the day before the experiment, cells were plated in white 96-well plates (Corning Inc.) at a density of 9,000 cells/well in assay medium consisting of Gibco® DMEM/F-12 Nutrient Mixture medium, 1% penicillin-streptomycin, with 5% dextran-coated charcoal-treated FBS (all reagents from Invitrogen, Life Technologies). On the following day, the medium was changed to assay medium containing the known AR agonist R1881 (Perkin Elmer) in 2-fold serial dilutions from 0.008 to 1 nM or the known AR antagonist hydroxyflutamide (CASRN 52806-53-8, Toronto Research Chemicals) in 3-fold serial dilutions from […] together with 0.1 nM R1881. […] The DMSO vehicle concentrations were kept constant in all wells (0.1%). Following approximately 20 h of exposure to test compounds firefly luminescence was measured in a luminometer (LUMIstar® Galaxy, BMG LABTECH) using Dual-Glo® Luciferase Reagent from the Dual-Glo® Luciferase Assay System from Promega. Cell viability was measured by Renilla luminescence using Dual-Glo® Stop & Glo® Reagent from the Dual-Glo® Luciferase Assay System.

A short description of data set [4]: PBK model simulation of fetal and maternal concentrations. On the set-up: species or system rat.
In data set [5] the target is T1, androgen receptor (AR). Further details: method as in Orton et al. (2011). The following applies: ref Orton et al. (2011), cited from earlier work.
Data set [6] concerns Wistar rats. The following applies: rat, in vivo.
A further data set deals with Sprague-Dawley rats. As to conditions: male, rat, in vivo.

As to `CC12CC1(C)C(=O)N(c1cc(Cl)cc(Cl)c1)C2=O` (stereo not shown) [Procymidone, procymidone, reference compound], the “AGDI reduction (%)” value in the data set with Wistar rats [1] is recorded as 34^d %. Moreover, in the data set with Wistar rats [2], the “AGDI ED50” value is recorded as 69.4 mg/kg BW. The same compound displayed an IC50 against androgen receptor (AR) [3] of 400 nM. Besides, the “AR antagonism, in words” value at androgen receptor (AR) [3] (reporter gene assay) is recorded as “antagonized the AR”.
With `COc1ccc(C(=CC(=O)N2CCOCC2)c2ccc(Cl)cc2)cc1OC` [Dimethomorph, dimethomorph], in data set [4] (GD21 measurements vs PBK simulations), the “Ratio between observation and prediction (fetal and dams' plasma concentrations)” value is on record as 0.5 to 2. Moreover, the “Predicted maternal plasma level relative to analytically determined concentration” value in data set [4] (dams, GD21) is given as “approximately one-tenth”. For the same compound, at androgen receptor (AR) [5] (read-out: AR antagonism (IC50), MDA-kb2 cells), the IC50 was 900 nM. Besides, on androgen receptor (AR) [5] (read-out: AR antagonism (IC20 µM)), the IC20 was 300 nM. Further, the “Shortening of AGDI compared with male controls (normalized AGDI scale)” value in the data set on Wistar rats [6] (male, Wistar (HanTac:WH)) is reported as “around 10%”. Moreover, the AGDI mean with Wistar rats [6] (male, Wistar, 20 mg/kg) is given as 2.01; with Wistar rats [6] (male, Wistar, 60 mg/kg) it was 2.16; with Sprague-Dawley rats (20 mg/kg), 1.95; in the data set with Sprague-Dawley rats (60 mg/kg), 1.88; with Sprague-Dawley rats (180 mg/kg), 1.91. Moreover, in the data set with Wistar rats [6] (male, Wistar, 20 mg/kg/day), the “AGDI reduction (%)” value is reported as 13%. In addition, in the data set with Wistar rats [6], the “Nipple retention at PD14, statistics in words” value is listed as “no statistically significant effects on nipple retention”.

The term IC50 denotes the concentration that inhibits the measured activity by half. Usually IC20 stands for the point of the concentration-response curve where the effect stands at 20%.
